Tests used:
[1] = system: HCV genotype 2A; assay: HCV focus-forming assay (FFA); assay type: cell-based; settings: Hepatitis C virus
Procedure: (§1) Chemical analogs of KIN500 are tested for in vitro antiviral activity against HCV genotype 2A and influenza A virus (A/WSN/33). Viral protein and RNA levels are assessed following drug treatment using the assays described above.

[2] = system: influenza A virus (A/WSN/33); assay: microbe, parasite or virus in culture; assay type: cell-based
Procedure: as §1

[3] = system: ISG expression; assay: ISG expression enhancement; assay type: cell-based
[4] = system: Murine Encephalomyocarditis virus (EMCV); assay: EMCV antiviral assay (MTS cell viability); assay type: cell-based; settings: Huh7 cells, EMCV 250 pfu, 18 h post-infection
[5] = in vitro

For `COc1ccc(NC(=O)Cn2c(=O)n(Cc3ccco3)c(=O)c3sc4ccccc4c32)c(OC)c1` [KIN500, 2-[3-(furan-2-ylmethyl)-2,4-dioxo-3,4-dihydro[1]benzothieno[3,2-d]pyrimidin-1(2H)-yl]-N-(2,4-methoxyphenyl)acetamide], the IC50 [1] was 19.1 µM, the “Therapeutic index (TI) (CC50/IC50)” value ([2]; CC50/IC50) was 11 and the IC50 ([2]; Influenza A virus, WSN, read-out: Influenza nucleoprotein (NP) ELISA (IC50)) was 4.6 µM. The “enhancement of ISG expression” value [3] was 18 fold, the Cell viability post-infection ([4]; 5 μM) was about 0.75 and the Cell viability post-infection ([4]; 10 μM) was about 1.0. It also gave a Cell viability post-infection ([4]; 20 μM) of about 1.05 and a CC50 [5] of over 50 µM.

Source: patent US8927561B2, “Pyrimidinedione anti-viral compounds” (Kineta, Inc., priority 2010, dated 2015)
